The values below come from PubChem BioAssay AID328 (DTP/NCI, 2004).

The subject of the assay is BDF1 mice, P388 leukemia ip, median survival T/C. The experiment in a line: NCI In Vivo Anticancer Drug Screen. Data for tumor model P388 Leukemia (intraperitoneal) in B6D2F1 (BDF1) mice. The conditions noted are these: endpoint: median survival time, higher = longer survival. As to the method: The antitumor activity of compounds was measured in mice bearing transplantable tumors. Survival or tumor size were measured and the results are expressed as the measurement made in the treated group (T) divided by the measurement made in the vehicle treated control group (C). The tumor model used in this assay is P388 Leukemia (intraperitoneal) in B6D2F1 (BDF1) mice

The mark [1] stands for this setting: dose: 100.0 mg/kg/injection, schedule: Q01DX009 (ip), vehicle: saline.
[2] abbreviates: dose: 100.0 mg/kg/injection, schedule: Q04DX003 (ip), vehicle: saline.
Where [3] appears, read: dose: 200.0 mg/kg/injection, schedule: Q01DX009 (ip), vehicle: saline.
The mark [4] stands for this setting: dose: 200.0 mg/kg/injection, schedule: Q04DX003 (ip), vehicle: saline.
[5] abbreviates: dose: 400.0 mg/kg/injection, schedule: Q04DX003 (ip), vehicle: saline.
Where [6] appears, read: dose: 25.0 mg/kg/injection, schedule: Q01DX009 (ip), vehicle: saline with Tween-80.
[7] abbreviates: dose: 100.0 mg/kg/injection, schedule: Q04DX003 (ip), vehicle: saline with Tween-80.
Setting [8] is: dose: 50.0 mg/kg/injection, schedule: Q01DX009 (ip), vehicle: saline with Tween-80.
[9] abbreviates: dose: 200.0 mg/kg/injection, schedule: Q01DX009 (ip), vehicle: saline with Tween-80.
The mark [10] stands for this setting: dose: 100.0 mg/kg/injection, schedule: Q04DX003 (ip), vehicle: Klucel (hydroxypropylcellulose) (HPC).
[11] abbreviates: dose: 200.0 mg/kg/injection, schedule: Q04DX003 (ip), vehicle: Klucel (hydroxypropylcellulose) (HPC).
Setting [12] is: dose: 400.0 mg/kg/injection, schedule: Q04DX003 (ip), vehicle: Klucel (hydroxypropylcellulose) (HPC).
The mark [13] stands for this setting: dose: 200.0 mg/kg/injection, schedule: Q04DX003 (ip), vehicle: saline with Tween-80.
Setting [14] is: dose: 400.0 mg/kg/injection, schedule: Q04DX003 (ip), vehicle: saline with Tween-80.
Setting [15] is: dose: 100.0 mg/kg/injection, schedule: Q01DX009 (ip), vehicle: saline with Tween-80.
The mark [16] stands for this setting: dose: 50.0 mg/kg/injection, schedule: Q04DX003 (ip), vehicle: Klucel (hydroxypropylcellulose) (HPC).
Setting [17] is: dose: 100.0 mg/kg/injection, schedule: Q01DX001 (ip), vehicle: saline.
The mark [18] stands for this setting: dose: 200.0 mg/kg/injection, schedule: Q01DX001 (ip), vehicle: saline.
[19] abbreviates: dose: 400.0 mg/kg/injection, schedule: Q01DX001 (ip), vehicle: saline.

Inconclusive results and toxic doses are left out. Starred links: 1 amine or outer side, 2 acyl side, 3 side chain; linkers in the order of their positions; H or OH if unused. Positions of bridges follow the written chain, without caps; N, C: chain ends. Non-standard residues stand in square brackets, D forms with d. Residues, ends and D or L forms follow the SMILES beside them. Chains are numbered I, II in the order given. ξ: configuration not given here. *: point of attachment. Actinocin(1to9) = Cc1c2oc3c(C)ccc(C(=O)[*:2])c3nc-2c(C(=O)[*:1])c(N)c1=O; X2 = CC(=O)OC1CC(C)N([*:1])C1C(=O)[*:2]; X1 = CC1CC(=O)C(C(=O)[*:2])N1[*:1]; NMeV = CN[CH](C(=O)O)C(C)C; Cbz = O=C(OCc1ccccc1)*; NMeA = CN[CH](C)C(=O)O; ξK = NCCCCC(N)C(=O)O; Sar = CNCC(=O)O

For `NC(=O)CNCCS(=O)(=O)O`, the T/C under setting [1] was 91 % of control; the T/C under setting [2] is 100 % of control; the T/C under setting [3] is 87 % of control; the T/C under setting [4] was 109 % of control; the T/C under setting [5] is 104 % of control.

For `O=C(C=C(C(F)(F)F)C(F)(F)F)c1ccccc1Cl`, the T/C (dose: 11.0 mg/kg/injection, schedule: Q01DX009 (ip), vehicle: saline with Tween-80) was 109 % of control; the T/C (dose: 16.5 mg/kg/injection, schedule: Q01DX009 (ip), vehicle: saline with Tween-80) was 118 % of control; the T/C under setting [6] is 118 % of control.

Regarding `COc1ccc(/C=C/c2ccc3ccccc3[n+]2C)c(OC)c1OC`, the T/C (dose: 5.0 mg/kg/injection, schedule: Q01DX009 (ip), vehicle: Klucel (hydroxypropylcellulose) (HPC)) was 109 % of control.

In the case of `COc1cc(/C=C(/C)[N+](=O)[O-])cc(Br)c1OC`, under setting [7], the T/C was 117 % of control.

Turning to `S=C(N/N=C1\CSCc2ccccc21)Nc1cc(Cl)ccc1Cl`, the T/C is 90 % of control under setting [8] and 88 % of control under setting [9].

Turning to `CC(=O)CC(=O)Nc1ccc(Cl)cc1Cl`, the T/C runs as follows: (dose: 100.0 mg/kg/injection, schedule: Q01DX009 (ip), vehicle: Klucel (hydroxypropylcellulose) (HPC)) 96 % of control; under setting [10], 87 % of control; (dose: 200.0 mg/kg/injection, schedule: Q01DX009 (ip), vehicle: Klucel (hydroxypropylcellulose) (HPC)) 104 % of control; under setting [11], 87 % of control; (dose: 400.0 mg/kg/injection, schedule: Q01DX009 (ip), vehicle: Klucel (hydroxypropylcellulose) (HPC)) 88 % of control; under setting [12], 95 % of control.

Regarding `CC1=CC(=O)C=CC1(C)C(Cl)Cl` (centres undefined), the T/C was 90 % of control under setting [7], 105 % of control under setting [13] and 100 % of control under setting [14].

Consider `CC(C)CN(CC(C)C)C(=O)c1ccc(Cl)c(Cl)c1`, for which the T/C under setting [6] is 91 % of control, the T/C under setting [8] is 103 % of control, the T/C under setting [15] was 107 % of control and the T/C under setting [9] is 94 % of control.

With `Cc1c(C(=O)O)nc(/C=C/C(Cl)(Cl)Cl)[nH]c1=O`, the T/C (dose: 25.0 mg/kg/injection, schedule: Q04DX003 (ip), vehicle: Klucel (hydroxypropylcellulose) (HPC)) is 102 % of control; the T/C under setting [16] is 100 % of control; the T/C under setting [10] is 115 % of control; the T/C under setting [11] was 103 % of control; the T/C under setting [12] is 116 % of control.

Take `O=C(c1ccccc1)C(SSC(C(=O)c1ccccc1)C(=O)c1ccccc1)C(=O)c1ccccc1`: the T/C reads like this: under setting [8], 100 % of control; under setting [15], 112 % of control; under setting [9], 103 % of control.

Regarding `CC(=O)OC1CC(C)N2C(=O)C(C(C)C)NC(=O)C(NC(=O)c3ccc(C)c4oc5c(C)c(=O)c(N)c(C(=O)NC6C(=O)NC(C(C)C)C(=O)N7C(C)CC(=O)C7C(=O)N(C)CC(=O)N(C)C(C)C(=O)OC6C)c-5nc34)C(C)OC(=O)C(C(C)C)N(C)C(=O)CN(C)C(=O)C12` (centres undefined) (I: TV[X1][Sar][NMeA] / II: TV[X2][Sar][NMeV]; ester I:1-I:C, II:1-II:C; linker I:N-II:N via Actinocin(1to9); configuration not given here), the T/C (dose: 0.05 mg/kg/injection, schedule: Q01DX009 (ip), vehicle: saline + alcohol) is 100 % of control; the T/C (dose: 0.1 mg/kg/injection, schedule: Q01DX009 (ip), vehicle: saline + alcohol) was 117 % of control; the T/C (dose: 0.15 mg/kg/injection, schedule: Q04DX003 (ip), vehicle: saline + alcohol) is 98 % of control; the T/C (dose: 0.3 mg/kg/injection, schedule: Q04DX003 (ip), vehicle: saline + alcohol) is 113 % of control; the T/C (dose: 0.4 mg/kg/injection, schedule: Q01DX009 (ip), vehicle: saline + alcohol) was 156 % of control; the T/C (dose: 0.8 mg/kg/injection, schedule: Q01DX009 (ip), vehicle: saline + alcohol) is 189 % of control. Also, the T/C was 153 % of control (dose: 1.2 mg/kg/injection, schedule: Q04DX003 (ip), vehicle: saline + alcohol); 202 % of control (dose: 2.4 mg/kg/injection, schedule: Q04DX003 (ip), vehicle: saline + alcohol); 159 % of control (dose: 6.4 mg/kg/injection, schedule: Q01DX001 (ip), vehicle: saline + alcohol).

For `Cc1cc2c(c3ncccc13)OCN(Cc1ccc(Cl)cc1)C2`, the T/C was 104 % of control (dose: 12.5 mg/kg/injection, schedule: Q01DX009 (ip), vehicle: saline with Tween-80); 100 % of control under setting [6]; 91 % of control under setting [8].

Turning to `CN(C)C1C(=O)C(C(=O)NCNC(CCS(C)=O)C(=O)O)=C(O)C2(O)C(=O)C3=C(O)c4c(O)cccc4C(C)(O)C3CC12` (centres undefined), the T/C is, setting by setting: under setting [17], 100 % of control; under setting [18], 90 % of control; under setting [19], 86 % of control.

Turning to `NCC(=O)NC(CCCCNC(=O)OCc1ccccc1)C(=O)O` (centres undefined) (H-Gly-[ξK](Cbz)-OH), the T/C runs as follows: (dose: 12.5 mg/kg/injection, schedule: Q01DX005 (ip), vehicle: saline with Tween-80) 106 % of control; (dose: 25.0 mg/kg/injection, schedule: Q01DX005 (ip), vehicle: saline with Tween-80) 104 % of control.

In the case of `C1SCSCS1`, the T/C is, setting by setting: (dose: 75.0 mg/kg/injection, schedule: Q01DX009 (ip), vehicle: Klucel (hydroxypropylcellulose) (HPC)) 118 % of control; (dose: 100.0 mg/kg/injection, schedule: Q01DX001 (ip), vehicle: other) 109 % of control; under setting [10], 100 % of control; (dose: 150.0 mg/kg/injection, schedule: Q01DX009 (ip), vehicle: Klucel (hydroxypropylcellulose) (HPC)) 100 % of control; (dose: 200.0 mg/kg/injection, schedule: Q01DX001 (ip), vehicle: other) 90 % of control; under setting [11], 109 % of control. Also, the T/C was 113 % of control (dose: 300.0 mg/kg/injection, schedule: Q01DX009 (ip), vehicle: Klucel (hydroxypropylcellulose) (HPC)); 100 % of control (dose: 400.0 mg/kg/injection, schedule: Q01DX001 (ip), vehicle: other); 113 % of control under setting [12].

With `O=[N+]([O-])c1ccc(-n2[nH]nnc2=S)cc1`, the T/C is 107 % of control (dose: 50.0 mg/kg/injection, schedule: Q04DX003 (ip), vehicle: saline with Tween-80); 104 % of control under setting [7]; 95 % of control under setting [14].

As to `Cn1c(N)c(N=Cc2ccc(Cl)cc2)c(=O)n(C)c1=O`, the T/C is 92 % of control under setting [7] and 99 % of control under setting [13].

Regarding `CN=C(N)c1ccc(N=C(N)c2ccc(N=C(N)c3ccc(N)cc3)cc2)cc1`, the T/C by setting is: (dose: 16.0 mg/kg/injection, schedule: Q01DX009 (ip), vehicle: saline) 227 % of control; (dose: 25.0 mg/kg/injection, schedule: Q01DX009 (ip), vehicle: saline) 245 % of control; (dose: 35.0 mg/kg/injection, schedule: Q01DX009 (ip), vehicle: saline) 195 % of control.

With `CC(=O)C(C)(c1ccccc1)N(Cc1ccccc1)C(=O)c1ccccc1` (centres undefined), the T/C under setting [17] is 109 % of control, the T/C under setting [18] is 109 % of control and the T/C under setting [19] is 104 % of control.

In the case of `CCOC(=O)COc1ccc(C=O)cc1`, the T/C was 103 % of control under setting [10] and 92 % of control under setting [12].

Turning to `CC1C(=O)CC(=O)C1=O` (centres undefined), the T/C runs as follows: (dose: 50.0 mg/kg/injection, schedule: Q01DX009 (ip), vehicle: saline) 100 % of control; under setting [1], 104 % of control; under setting [3], 104 % of control.

For the compound `COc1ccc(C(O)CN)cc1` (centres undefined), the T/C is 98 % of control under setting [2], 97 % of control under setting [4] and 96 % of control under setting [5].

With `CCOC(=O)C(C#N)N=Nc1ccccc1` (centres undefined), the T/C is 90 % of control under setting [7], 95 % of control under setting [13] and 90 % of control under setting [14].

For `CC(C)Cc1c(N)nc(=O)[nH]c1C(=O)O`, the T/C runs as follows: under setting [16], 109 % of control; under setting [10], 95 % of control; under setting [11], 100 % of control.
